From patent US11311633B2, “Satiation peptides for weight loss and altered taste sensitivity” (University of Florida Research Foundation, Incorporated, priority 2016, dated 2022)

Columns and labels:
mice [1] = assay: PYY mouth spray, food intake after 24 hours fasting; format: in vivo
Protocol: FIGS. 4A-4D depict the effects of Peptide YY Mouth Spray.
Synthetic PYY was purchased from Bachem, Inc USA (Cat #H-6042) and diluted in sterile H2O. Sterile un-used perfume sample vials (Saphora) were utilized to administer PYY in the form of a mouth spray. It was estimated that the volume of one spray approximates to about […].
Mice were conditioned three times to 24 hours fasting starting at the beginning of the dark cycle and ending at the end of the light cycle. At the end of the fasting cycle and as a part of conditioned routine, a sterile water spray had been administered into the mouth. All the experiments were done during the first hour of the dark cycle after fasting. Once the dark cycle started, mice were sprayed once with either PYY or sterile H2O in a total volume of […] per spray. After the treatment, mice were returned to their cages and ten minutes later pre-weighted chow was provided. One hour later, the amount of consumed chow had been recorded by measuring the leftover amount. When the experiments were repeated, mice were fasted only once a week with the control and experimental groups rotated.

mice [2] = assay: Exendin-4 oral spray prior to meals, food intake; format: in vivo
Excerpt: PYY and GLP-1 are both produced in […] L-cells and secreted simultaneously into the blood stream in response to nutrient uptake. […] Similarly, a decrease in food intake of mice given Exendin-4 (Ex-4), a GLP-1 analog, in the form of an oral spray prior to meals was observed. Both of these peptides individually modulate body weight, we have evidence that, when used in combination, PYY and Ex-4 may have a synergistic effect on modulation of body weight.

Substance	overall 24 hr period FI, experimental vs control group (mice [1]; after PYY mouth spray vs sterile H2O)	PYY dose response effect to FI (mice [1]; mouth spray, FI measured after one hour)	less food consumed in one hour compared to control group sprayed with H2O (mice [1]; one mouth spray, 5 μg per 100 g of body weight, after 24 hours fasting, average)	food intake (mice [2])
PYY: Synthetic PYY purchased from Bachem (Cat #H-6042), diluted in sterile H2O, given as mouth spray [Peptide YY]	similar	significant	15%	–
Exendin-4	–	–	–	decrease
